Laboratory results as given in patent US12226382B2, “Methods for treating microglial dysfunction” (Washington University, priority 2017, dated 2025).

What was measured:
[1] = system: Trem2−/− BMDMs; experiment: Autophagic flux in BMDM with lysosomal inhibitor (LC3 immunoblot); type: cell-based, mouse; conditions: bafilomycin for 5 hours prior to harvest
Protocol: (§1) To prepare bone marrow-derived macrophages, femurs and tibias were removed and flushed with PBS. Cells were counted and plated at 2.5×10^6 cells/100 mm petri dish in RPMI supplemented with Glutamax, penicillin/streptomycin, non-essential amino acids, pyruvate, and 10% heat inactivated fetal bovine serum (complete RPMI) and 10% L-cell conditioned medium (LCCM). Cells were cultured for 4-5 days before use. Microglia were prepared as previously described (Wang et al., 2015). Briefly, brains were dissociated by using a Neural Tissue Dissociation Kit (T) (Miltenyi Biotech Cat. Number 130-093-231). Cell suspensions were labeled with anti-mouse CD45 magnetic beads and isolated on LS columns (Miltenyi Biotic). Cells were plated onto poly-L-lysine coated polystyrene plates in complete RPMI supplemented with 20% LCCM and 10 ng/ml human TGF-β. Media was changed on day 3 post plating and cells were used 5-7 days post plating. ATP concentrations were determined with an ATP Determination Kit (Invitrogen).
(§2) BMDM or microglia were lysed in RIPA buffer (50 mM Tris, 150 mM NaCl, 1% SDS, and 1% Triton X100) containing PMSF, leupeptin, activated sodium orthovanidate, apoprotinin, and phosphatase inhibitor cocktail 3 (Sigma Aldrich Cat. Number P0044). Lysates were flash frozen on dry ice and stored at −80° C. until use. Lysates were thawed and 4× LDS running buffer and 10% β-mercaptoethanol were added. […]

[2] = system: Trem2-deficient BMDMs; experiment: Extracellular acidification rate (ECAR), XF96 Extracellular Flux Analyzer; type: cell-based, mouse; conditions: overnight 0.5% LCCM, 10 mM cyclocreatine
Protocol: as §1, with “(Invitrogen). For real-time analysis of extracellular acidification rates (ECAR) macrophages were analyzed using an XF96 Extracellular Flux Analyzer (Agilent Technologies). Cells were incubated overnight in complete RPMI in the indicated concentration of LCCM with or without cyclocreatine (10 mM). […]” for “(Invitrogen).”

[3] = system: Trem2−/− BMDMs; experiment: Immunoblots for autophagy (LC3, p62) and mTOR signaling in BMDM in limiting CSF1 with rescuing agent; type: cell-based, mouse; conditions: Trem2-deficient BMDMs, overnight 0.5% LCCM, 5 mM cyclocreatine
Protocol: as §1, §2

[4] = system: Trem2−/− BMDM; experiment: Viability of BMDM in 0.5% LCCM; type: cell-based, mouse; conditions: Trem2-deficient BMDMs, 40 hours in 0.5% LCCM
[5] = system: Trem-2 deficient macrophages; experiment: Supplementation of Trem2-deficient macrophages with creatine analogs; type: cell-based, mouse; conditions: supplemented media
[6] = system: Trem2−/− 5XFAD mice; experiment: Dietary cyclocreatine in Trem2−/− 5XFAD mice: TEM and confocal microscopy of brain; type: in vivo, mouse
Text: (§3) The generation of Trem2^−/− and Trem2^−/− SXFAD mice has been described previously (Oakley et al., 2006; Turnbull et al., 2006; Wang et al., 2015). All mice were on a C57BL/6 background. Age and sex matched mice were used for all experiments; experimental cohorts of mice were cohoused from birth to control for the microbiota. For in vivo cyclocreatine treatment 10-week old mice were put on cyclocreatine-containing water, treatment was continued until mice reached 8 months of age (Santa Cruz SC-217964 S). Desired intake of cyclocreatine was approximately 0.28 mg/g of body weight/day, which is approximately the same as the standard creatine dose used in humans of 285 mg/kg of body weight/day (Kurosawa et al., 2012). Cyclocreatine was administered in drinking water at a final concentration of 2.33 mg/ml. The Institutional Animal Care and Use Committee at Washington University in St. Louis approved all protocols used in this study.
For quantitation of multivesicular/multilamellar structures, 30 cells that were cross-sectioned through the nucleus (indicating cross-section through the middle of cell) were randomly chosen, and images of each cell were taken at 6,000× and 20,000× magnification. The cross-sectional area of each of the multivesicular structures were determined using Image J 1.38 g (National Institutes of Health, USA, customized for AMT images). Data is expressed as the 1) total number of a multivesicular/multilammelar structures per cross-sectional area of cytosol and 2) the total cross-sectional area of multivesicular/multilamellar structures per area of cytosol.
Confocal microscopy analysis was performed as previously described (Wang et al., 2015). Briefly, mice were anesthetized with ketamine/xylazine and perfused with ice-cold PBS containing 1 U/ml of heparin. Brains were fixed in 4% PFA overnight at 4° C. rinsed in PBS and incubated overnight at 4° C. in 30% sucrose before freezing in a 2:1 mixture of 30% sucrose and optimal cutting temperature compound. Serial 40 μm coronal sections were cut on a cryo-sliding microtome. Floating sections from 1.1 mm Bregma to 0.8 mm Bregma for cortical imaging or slides with fixed human sections were stained with lba-1 (Waco Chemicals Cat. Number 019-19741) overnight at 4° C. followed by staining with anti-rabbit IgG DyLight 549 (Vector Laboratories Cat. Number DI-1549) and methoxy-X04 (Tocris Cat. Number 4920) for 1 hour at RT. Finally, sections were stained for with anti-LC3 Alexa 488±anti-cleaved caspase 3 (Cell Signaling Technologies Cat. Number 13082 and 9602). Images were collected using a Nikon Al Rsi+ confocal microscope. Images were then processed with Imaris 7.7 (Bitplane).
Positions of microglia and positions and volumes of plaques within z-stacks were derived from analysis in Imaris, and microglia-plaque association was determined using automated scripts in Matlab. Briefly, each plaque in the z-stack was modeled as an idealized sphere with the same volume and center of mass. Microglia density within 15 μm of the plaque surface was determined by isolating the voxels of the image that fall within 15 μm of the edge of the idealized plaque. The number of microglia contained in these voxels was divided by the total volume of those voxels to obtain density for a single plaque. Densities of all plaques in a z-stack were averaged together, and the resulting values were averaged together for all z-stacks corresponding to a single animal.
To measure total plaque area, brain sections were stained with methoxy X04. Images were collected using a Nikon Eclipse 80i microscope. For quantitative analysis, images were converted to 8-bit greyscale and stitched using the “Stitching” plugin in ImageJ. Cortex (˜1.1 mm Bregma to 0.8 mm Bregma) and hippocampus (˜−1.7 Bregma to −2.4 Bregma) were determined by manual selection. […]

[7] = system: 5XFAD mice; experiment: Dietary cyclocreatine in 5XFAD mice: confocal microscopy of brain; type: in vivo, mouse; conditions: cyclocreatine-treated 5XFAD mice vs untreated Trem2−/− 5XFAD mice
Text: as §3
Confocal microscopy analysis was performed as previously described (Wang et al., 2015). Briefly, mice were anesthetized with ketamine/xylazine and perfused with ice-cold PBS containing 1 U/ml of heparin. Brains were fixed in 4% PFA overnight at 4° C. rinsed in PBS and incubated overnight at 4° C. in 30% sucrose before freezing in a 2:1 mixture of 30% sucrose and optimal cutting temperature compound. […]

[8] = system: microglia from Trem2−/− 5XFAD mice; experiment: Immunoblots of microglia sorted ex vivo from cyclocreatine-treated mice; type: in vivo, mouse; conditions: microglia isolated ex vivo, cyclocreatine vs untreated
Text: as §3
Microglia were isolated from the indicated animals as previously described (Wang et al., 2015). CD45^+, CD11 b^+, F4/80^+ (Biolegend Cat. Number 103134, eBioscience Cat. Numbers 11-0112 and 17-4801) cells in the brain were fluorescence-activated cell-sorted (FACS) directly into RLT-plus lysis buffer for microarray or 2% FBS in PBS for TEM or immunoblot lysates. For microarray RNA extraction was performed using a RNeasy micro kit (QIAGEN). […]

[9] = system: creatine kinase; conditions: in vitro and in vivo; cited from earlier work
[10] = cited from earlier work
[11] = system: Trem2−/− BMDMs; experiment: ER stress in BMDM (LC3 and phospho-Akt immunoblots); type: cell-based, mouse; conditions: Trem2−/− BMDMs compared with WT BMDMs, 10% LCCM
Protocol: as §1, §2

[12] = compared with phosphocreatine; cited from earlier work
[13] = Trem2−/− 5XFAD mice, cyclocreatine in drinking water from 10 weeks to 8 months
[14] = Trem2−/− 5XFAD mice, cyclocreatine vs untreated
[15] = cyclocreatine treated Trem2−/− 5XFAD mice

In the case of `CO/C1=C\C(C)=C\[C@@H](C)[C@@H](O)[C@@H](C)C/C(C)=C/C=C/[C@H](OC)[C@@H]([C@@H](C)[C@@H](O)[C@H](C)[C@@]2(O)C[C@@H](O)[C@H](C)[C@@H](C(C)C)O2)OC1=O` [bafilomycin, Bafilomycin A1], the LC3II [1] was “greatly increased”.

With `NC1=NCCN1CC(=O)O` [cyclocreatine, 1-carboxymethyl-2-iminoimidazolidine] the ECAR [2] was “improved”, the “autophagy (LC3 immunoblot)” value [3] was “less autophagy” and the mTOR signaling [3] was “increased mTOR signaling”. For the same compound, the viability [4] was “increased”, the autophagy [5] was “prevent” and the cell death [5] was “prevent”. For the same compound, the “metabolic activity / metabolic capacity” value [5] was “rescue”, the “engulfment of plaque particulates by microglia” value ([6]; 8 months of age) was “did not moderate” and the “number of LC3 puncta/cell” value [6, 13] was “significantly decreased”. The “percentage of LC3+ microglia” value [6, 13] was “significantly decreased”, the “percentage of cleaved caspase-3+ microglia” value [6, 13] was “significantly decreased” and the “multivesicular/multilamellar structures in microglia (TEM)” value ([6]; Trem2−/− 5XFAD mice, cyclocreatine in drinking water from 10 weeks to 8 months, vs untreated) was “significantly fewer”. The “clustering of microglia around plaques” value [6, 14] was “significantly increased”, the “number of microglia/high powered field (HPF) in plaque-bearing regions of the cortex” value [6, 14] was “significantly increased” and the plaque-associated neurite dystrophy [6, 14] was “significantly reduced”. The plaque accumulation ([6]; cortex and hippocampus, 8 months of age) was “did not moderate”, the “density of plaques (methoxy-X04 staining intensity)” value [6, 15] was “resembled that of plaques in 5XFAD mice” and the plaque shape complexity [6, 15] was “not significantly altered”. The “Spp1+ microglia” value ([6]; cyclocreatine-treated Trem2−/− 5XFAD mice vs untreated Trem2−/− 5XFAD mice) was “significantly more”, the “Spp1+ microglia” value [7] was “significantly more” and the “autophagy (LC3II/LC3I ratio)” value [8] was “significantly limited”. The “microglial mTOR signaling” value [8] was “restored”, the “phosphorylation by creatine kinase in the forward reaction” value [9] was “phosphorylated efficiently” and the “accumulation in the brain” value ([10]; mouse brain in vivo) was “can accumulate and function as a phosphagen in the mouse brain”. For the same compound, the transport across membranes ([10]; mouse, in vivo) was “passively transported across membranes”.

In the case of tunicamycin, the “Akt S473 phosphorylation” value [11] was “less” and the LC3II/LC3I ratios [11] was “greater”.

In the case of “phosphocyclocreatine [cyclocreatine phosphate]”, the “stability of the phosphorous-nitrogen (P N) bond” value [12] is given as “more stable than that of phosphocreatine”.

With phosphocreatine the autophagy [5] was “prevent”, the cell death [5] was “prevent” and the “metabolic activity / metabolic capacity” value [5] was “rescue”.

For `NC(=O)c1ccc[n+]([C@@H]2O[C@H](COP(=O)([O-])O)[C@@H](O)[C@H]2O)c1` [NMN, nicotinamide mononucleotide], the autophagy [5] was “prevent”, the cell death [5] was “prevent” and the “metabolic activity / metabolic capacity” value [5] was “rescue”.
